Four molecules from patent US20050219340A1, “Actinic ray curable ink composition, image forming method and ink-jet recording apparatus using the same” (KONICA MINOLTA MEDICAL & GRAPHIC, INC., priority 2004, published 2005) can be followed below.

This data set can be described thus: physchem.
Experimental: P(O/W), as described in the present invention, refers to the partition coefficient between 1-octanol and water and is as defined for the value which is treated as information to judge accumulativeness in the bodies of fish and shellfish, in the course of registration of new compounds, to conform in the Law Concerning Examination and Regulation of Manufacture etc. of Chemical Substances (a Japanese law), and is represented by the formula below; P(O/W)=CO/CW wherein CO represents the concentration (in mg/L) of a compound in the 1-octanol layer, while CW represents the concentration (in mg/L) of the above compound in the water layer.
`COc1ccc([S+](c2ccc(OC)cc2)c2ccc(OC)cc2)cc1` [Compound S-1] yielded a logP of 0.1.

`COc1ccc([S+](c2ccc(C)cc2)c2ccc(OC)cc2)cc1` [Compound S-2] showed a logP of 0.12. The molecule `COc1ccc([S+](c2ccc(C)cc2)c2ccc(C)cc2)cc1` [Compound S-3] came in with a lipophilicity (logP) of 0.12. `COc1ccc([S+](c2ccc(OC)cc2)c2ccc(Oc3ccc(C)cc3)cc2)cc1` [Compound S-4] gave a logP of 0.15.
